Experimental data as given in patent US20130184302A1, “METHODS FOR TREATING IRRITABLE BOWEL SYNDROME (IBS) AND INFECTIONS” (priority 2011, published 2013).

Tests used:
subjects with d-IBS [1] = test: Designed study of 14-day oral rifaximin 550 mg TID in d-IBS (Example 2); assay type: in vivo, human; conditions: oral rifaximin 550 mg TID 14 days
Excerpt: A measure of efficacy is based on subjects' answers to the Weekly Subject Global Assessment (SGA) questions over the 4 week study duration in relation to their IBS symptoms.

subjects with d-IBS [2] = test: Adequate relief of IBS symptoms and bloating (weekly yes/no questions), rifaximin BID study in d-IBS; assay type: in vivo, human; conditions: for Percentage of Subjects with Number of Weeks with Adequate Relief of Bloating Symptoms / Percentage of Subjects with Number of Weeks with Adequate Relief of IBS Symptoms: RFX 550 mg BID, ITT; for Adequate Relief of Bloating: Success / Adequate Relief of IBS symptoms: Success: end of the Treatment Phase
Procedure: This example relates to a study of rifaximin in subjects with d-IBS. […] There were two measures of efficacy assessed. Subjects were questioned on the relief of overall IBS symptoms and bloating. […] The analyses defined success as a “yes” response to questions regarding adequate relief.
All subpopulations in the study responded to therapy. Baseline severity was determined using 7-point Lickert scales during screening for Abdominal Pain/Discomfort and Bloating, and the number, type (normal, hard, loose) and urgency of bowel movements.
Duration of effect was assessed in a follow-up period. Subjects that responded in the 4 week treatment period were followed for an additional 3 months.
The effect of treatment on the percentage of subjects who reported adequate relief of IBS and bloating symptoms for at least two of the final three weeks during the treatment phase (Weeks 1 to 4) is shown in Tables 5-7 and FIGS. 4-6 below.
The study assessed the effect over 12 weeks of follow-up on long-term adequate relief. Subjects who had adequate relief by Week 4 and remained symptom-free at Week 5 were followed during the post-treatment phase and shown in FIGS. 1 and 2. Superiority to placebo was maintained during the 12 weeks post-treatment follow-up. Results for IBS symptoms were RFX 550 mg BID 62.3% versus placebo 49.2%, and RFX 550 mg BID 59.3% versus 50.9% for placebo for the symptom of bloating through week 16. In assessing the follow-up data, there was statistical significance (p<0.05) of bloating and IBS symptoms for RFX 550 mg BID versus placebo.
Two measures of efficacy were assessed independently. The first was the proportion of subjects who provided a ‘yes’ response to the weekly SGA question: “In the past 7 days, have you had adequate relief of your IBS symptoms? (yes/no)”. The second endpoint was the proportion of subjects who provide a ‘yes’ response to the weekly individual symptom question: “In the past 7 days, have you had adequate relief of your symptom of bloating? (yes/no)”. Durability was based on the proportion of subjects that had adequate relief over the entire treatment phase.
It is reported herein that the severity of baseline symptoms of abdominal pain and bloating influenced the response to rifaximin treatment. The co-primary endpoints in this analysis assessed weekly yes/no responses to questions regarding adequate relief of global IBS symptoms and IBS-associated bloating. Severity of baseline IBS symptoms was evaluated as a potential confounder of clinical response and was categorized as mild/moderate or severe based on a mean score of ≦4 vs. >4 (on a 7-point scale) for bloating and abdominal pain.
The Weekly yes/no responses to questions regarding adequate relief of global IBS symptoms and IBS-associated bloating were assessed. Clinical response was defined as adequate relief for 2 of the final 3 treatment weeks (wk 2, 3, or 4). Severity of baseline IBS symptoms was evaluated as a potential confounder of clinical response and was categorized as mild/moderate or severe based on a mean score of ≦4 versus >4 (on a 7-point scale (0=not bothersome; 6=very bothersome)) for bloating and abdominal pain.

For CO[C@H]1/C=C/O[C@@]2(C)Oc3c(C)c(O)c4c(O)c(c5c(nc6cc(C)ccn65)c4c3C2=O)NC(=O)/C(C)=C\C=C\[C@H](C)[C@H](O)[C@@H](C)[C@@H](O)[C@@H](C)[C@H](OC(C)=O)[C@@H]1C [Rifaximin, (2S,16Z,18E,20S,21S,22R, 23R,24R,25S,26S,27S,28E)-5,6,21,23,25 Pentahydroxy-27-methoxy-2,4,11,16,20,22,24,26-octamethyl-2,7-(epoxypentadeca-(1,11,13)trienimino) benzofuro (4,5-e) pyrido(1,2,-a) benzimidazole-1,15(2H)-dione,25-acetate], the “Answers to weekly SGA question on adequate relief of IBS symptom of bloating” value (subjects with d-IBS [1]) was “respond “Yes” more often”, the “Answers to weekly SGA question on adequate relief of IBS symptoms” value (subjects with d-IBS [1]) was “respond “Yes” more often” and the “Percentage of Subjects with Number of Weeks with Adequate Relief of Bloating Symptoms” value (“Percentage of Subjects … of Bloating Symptoms” below) (subjects with d-IBS [2]; 0 weeks) was 35%. For the same compound, the “Percentage of Subjects with Number of Weeks with Adequate Relief of IBS Symptoms” value (shortened to “Percentage of Subjects … of IBS Symptoms”) (subjects with d-IBS [2]; 0 weeks) was 33%, the “Percentage of Subjects … of Bloating Symptoms” value (subjects with d-IBS [2]; 1 week) was 14% and the “Percentage of Subjects … of IBS Symptoms” value (subjects with d-IBS [2]; 1 week) was 11%. The “Percentage of Subjects … of Bloating Symptoms” value (subjects with d-IBS [2]; 2 weeks) was 15%, the “Percentage of Subjects … of IBS Symptoms” value (subjects with d-IBS [2]; 2 weeks) was 15% and the “Percentage of Subjects … of Bloating Symptoms” value (subjects with d-IBS [2]; 3 weeks) was 20%. The “Percentage of Subjects … of IBS Symptoms” value (subjects with d-IBS [2]; 3 weeks) was 23%, the “Percentage of Subjects … of Bloating Symptoms” value (subjects with d-IBS [2]; 4 weeks) was 14% and the “Percentage of Subjects … of IBS Symptoms” value (subjects with d-IBS [2]; 4 weeks) was 16%. For the same compound, the “Treatment effect, Bloating” value (subjects with d-IBS [2]; Age <65) was 6.8%, the “Treatment effect, IBS Sx” value (subjects with d-IBS [2]; Age <65) was 6.9% and the “Treatment effect, Bloating” value (subjects with d-IBS [2]; Age ≧65) was 3.2%. The “Treatment effect, IBS Sx” value (subjects with d-IBS [2]; Age ≧65) was 19.1%, the “Treatment effect, Bloating” value (subjects with d-IBS [2]; Diabetes History N) was 7.4% and the “Treatment effect, IBS Sx” value (subjects with d-IBS [2]; Diabetes History N) was 9.5%. For the same compound, the “Treatment effect, Bloating” value (subjects with d-IBS [2]; Diabetes History Y) was −5.6%, the “Treatment effect, IBS Sx” value (subjects with d-IBS [2]; Diabetes History Y) was −12.7% and the “Treatment effect, Bloating” value (subjects with d-IBS [2]; Disease Duration 10-20 y) was 11.7%. The “Treatment effect, IBS Sx” value (subjects with d-IBS [2]; Disease Duration 10-20 y) was 20.1%, the “Treatment effect, Bloating” value (subjects with d-IBS [2]; Disease Duration >20 y) was 35.1% and the “Treatment effect, IBS Sx” value (subjects with d-IBS [2]; Disease Duration >20 y) was 46.6%. The “Treatment effect, Bloating” value (subjects with d-IBS [2]; Disease Duration ≦10 y) was 2.8%, the “Treatment effect, IBS Sx” value (subjects with d-IBS [2]; Disease Duration ≦10 y) was 1.8% and the “Adequate Relief of Bloating: Failure” value (subjects with d-IBS [2]; Female, RFX 275 2w) was 52 (64.2%). The “Adequate Relief of IBS symptoms: Failure” value (subjects with d-IBS [2]; Female, RFX 275 2w) was 46 (56.8%), the “Adequate Relief of Bloating: Success” value (subjects with d-IBS [2]; Female, RFX 275 2w) was 29 (35.8%) and the “Adequate Relief of IBS symptoms: Success” value (subjects with d-IBS [2]; Female, RFX 275 2w) was 35 (43.2%). For the same compound, the “Adequate Relief of Bloating: Failure” value (subjects with d-IBS [2]; Female, RFX 550 2w) was 74 (54.0%), the “Adequate Relief of IBS symptoms: Failure” value (subjects with d-IBS [2]; Female, RFX 550 2w) was 66 (48.2%) and the “Adequate Relief of Bloating: Success” value (subjects with d-IBS [2]; Female, RFX 550 2w) was 63 (46.0%). The “Adequate Relief of IBS symptoms: Success” value (subjects with d-IBS [2]; Female, RFX 550 2w) was 71 (51.8%), the “Adequate Relief of Bloating: Failure” value (subjects with d-IBS [2]; Female, RFX 550 4w) was 44 (57.9%) and the “Adequate Relief of IBS symptoms: Failure” value (subjects with d-IBS [2]; Female, RFX 550 4w) was 42 (55.3%). The “Adequate Relief of Bloating: Success” value (subjects with d-IBS [2]; Female, RFX 550 4w) was 32 (42.1%), the “Adequate Relief of IBS symptoms: Success” value (subjects with d-IBS [2]; Female, RFX 550 4w) was 34 (44.7%) and the “Adequate Relief of Bloating: Failure” value (subjects with d-IBS [2]; Female, RFX 1100 2w) was 45 (61.6%). For the same compound, the “Adequate Relief of IBS symptoms: Failure” value (subjects with d-IBS [2]; Female, RFX 1100 2w) was 44 (60.3%), the “Adequate Relief of Bloating: Success” value (subjects with d-IBS [2]; Female, RFX 1100 2w) was 28 (38.4%) and the “Adequate Relief of IBS symptoms: Success” value (subjects with d-IBS [2]; Female, RFX 1100 2w) was 29 (39.7%). The “Treatment effect, Bloating” value (subjects with d-IBS [2]; Gender F) was 3.9%, the “Treatment effect, IBS Sx” value (subjects with d-IBS [2]; Gender F) was 3.5% and the “Treatment effect, Bloating” value (subjects with d-IBS [2]; Gender M) was 13.6%. For the same compound, the “Treatment effect, IBS Sx” value (subjects with d-IBS [2]; Gender M) was 21%, the “Adequate Relief of Bloating: Failure” value (subjects with d-IBS [2]; Male, RFX 275 2w) was 8 (57.1%) and the “Adequate Relief of IBS symptoms: Failure” value (subjects with d-IBS [2]; Male, RFX 275 2w) was 9 (64.3%). For the same compound, the “Adequate Relief of Bloating: Success” value (subjects with d-IBS [2]; Male, RFX 275 2w) was 6 (42.9%) and the “Adequate Relief of IBS symptoms: Success” value (subjects with d-IBS [2]; Male, RFX 275 2w) was 5 (35.7%).
